# Reference: patent US20230107642A1 (Erasca, Inc., priority 2020, published 2023)
# Molecular target: T1, Cys12 of the KRAS 4B G12C protein (Homo sapiens, UniProt P01116, G12C)
# T1 construct: This protein contained 188 amino acids in total, including an N-terminal 6-Histidine tag; made in house; host or cells: E. coli BL21
# Assay: In vitro covalent adduct formation (CAF) assay, LC-MS intact mass
# Format: binding
# Conditions: for % CAF 10 uM @ 60 min: 10 uM compound; for CAF (% after 1 hour): 10 μM compound
# Procedure, shortened: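 Percent covalent modification from intact-mass LC-MS, by relative free versus adducted protein (adducts within 1 Da of expected mass). Reaction: 10 μM compound with 5 μM E. coli-expressed, GDP-exchanged KRAS 4B G12C in TBS pH 7.4, 4% DMSO, 1 h at 22° C.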
% CAF 10 uM @ 60 min (60 min) [%],Molecule,further results
93.9,"C=CC(=O)N1[C@H](C)CN(c2nc(=O)n3c4c(c(-c5cc(Cl)c(F)cc5F)c(C(F)(F)F)cc24)SC[C@@H]3CN(C)C)C[C@@H]1C (atropisomer, axis not shown) [Example 1375, (3S,10R)-7-((3S,5R)-4-acryloyl-3,5-dimethylpiperazin-1-yl)-10-(5-chloro-2,4-difluorophenyl)-3-((dimethylamino)methyl)-9-(trifluoromethyl)-2,3-dihydro-5H-[1,4]thiazino[2,3,4-ij]quinazolin-5-one]",
,"C=CC(=O)N1[C@H](C)CN(c2nc(=O)n3c4c(c(-c5ccc(F)cc5)c(C(F)(F)F)cc24)SC[C@@H](N)C3)C[C@@H]1C [Example 1032, (S)-8-((3S,5R)-4-acryloyl-3,5-dimethylpiperazin-1-yl)-3-amino-11-(4-fluorophenyl)-10-(trifluoromethyl)-3,4-dihydro-2H,6H-[1,4]thiazepino[2,3,4-ij]quinazolin-6-one]",CAF (% binding after 60 min): 92%
,"C=CC(=O)N1[C@H](C)CN(c2nc(=O)n3c4c(c(-c5ccc(F)cc5C#N)c(C(F)(F)F)cc24)SC[C@@H](OC)C3)C[C@@H]1C [Example 1226, 2-((3S)-8-((3S,5R)-4-Acryloyl-3,5-dimethylpiperazin-1-yl)-3-methoxy-6-oxo-10-(trifluoromethyl)-3,4-dihydro-2H,6H-[1,4]thiazepino[2,3,4-ij]quinazolin-11-yl)-5-fluorobenzonitrile]",CAF (% after 1 hour): 81%
71.6,"C=CC(=O)N1[C@H](C)CN(c2nc(=O)n3c4c(c(-c5ccc(F)c(Cl)c5)c(C(F)(F)F)cc24)SC[C@@H](N2CCOCC2)C3)C[C@@H]1C [Example 1386, (S)-8-((3S,5R)-4-acryloyl-3,5-dimethylpiperazin-1-yl)-11-(3-chloro-4-fluorophenyl)-3-morpholino-10-(trifluoromethyl)-3,4-dihydro-2H,6H-[1,4]thiazepino[2,3-4-ij]quinazolin-6-one]",
97.4,"C=CC(=O)N1[C@H](C)CN(c2nc(=O)n3c4c(c(-c5ccc(F)cc5F)c(C(F)(F)F)cc24)SC[C@@H]3COCOC)C[C@@H]1C (atropisomer, axis not shown) [Example 1320, (3S,10R)-7-((3S,5R)-4-acryloyl-3,5-dimethylpiperazin-1-yl)-10-(2,4-difluorophenyl)-3-((methoxymethoxy)methyl)-9-(trifluoromethyl)-2,3-dihydro-5H-[1,4]thiazino[2,3,4-ij]quinazolin-5-one]",
90,"C=CC(=O)N1[C@H](C)CN(c2nc(=O)n3c4c(c(-c5cc(O)c(F)cc5F)c(C(F)(F)F)cc24)SC[C@@H]3COC)C[C@@H]1C [Example 1444, (3S)-7-((3S,5R)-4-acryloyl-3,5-dimethylpiperazin-1-yl)-10-(2,4-difluoro-5-hydroxyphenyl)-3-(methoxymethyl)-9-(trifluoromethyl)-2,3-dihydro-5H-[1,4]thiazino[2,3,4-ij]quinazolin-5-one]",
64.6,"C=CC(=O)N1[C@H](C)CN(c2nc(=O)n3c4c(c(-c5cc(Cl)c(F)cc5F)c(C(F)(F)F)cc24)SC[C@@H]3COCOC)C[C@@H]1C (atropisomer, axis not shown) [Example 1369]",
,"C=CC(=O)N1C[C@H](C)N(c2nc(=O)n3c4c(c(-c5ccc(F)cc5)c(C(F)(F)F)cc24)SC[C@@H](OC)C3)C[C@H]1C [Example 1202, (S)-8-((2S,5R)-4-acryloyl-2,5-dimethylpiperazin-1-yl)-11-(4-fluorophenyl)-3-methoxy-10-(trifluoromethyl)-3,4-dihydro-2H,6H-[1,4]thiazepino[2,3,4-ij]quinazolin-6-one]",CAF (% after 1 hour): 97%
,"C=CC(=O)N1[C@H](C)CN(c2nc(=O)n3c4c(c(-c5cc(Br)c(F)cc5F)c(C(F)(F)F)cc24)SC[C@@H](OC)C3)C[C@@H]1C [Example 1239, (3S)-8-((3S,5R)-4-acryloyl-3,5-dimethylpiperazin-1-yl)-11-(5-bromo-2,4-difluorophenyl)-3-methoxy-10-(trifluoromethyl)-3,4-dihydro-2H,6H-[1,4]thiazepino[2,3,4-ij]quinazolin-6-one]",CAF (% after 1 hour): 95%
92.4,"C=CC(=O)N1CCN(c2nc(=O)n3c4c(c(-c5ccc(F)c(Cl)c5)c(C(F)(F)F)cc24)SCC2(COC2)C3)CC1 [Example 1357, 8-(4-acryloylpiperazin-1-yl)-11-(3-chloro-4-fluorophenyl)-10-(trifluoromethyl)-2H-spiro[[1,4]thiazepino[2,3,4-ij]quinazoline-3,3′-oxetan]-6(4H)-one]",
29.8,"(3S,10S)-7-((2S,5R)-4-acryloyl-2,5-dimethylpiperazin-1-yl)-10-(5-chloro-2,4-difluorophenyl)-3-((4-cyclopropylpiperazin-1-yl)methyl)-9-(trifluoromethyl)-2,3-dihydro-5H-[1,4]thiazino[2,3,4-ij]quinazolin-5-one [Example 1361]",
95.9,"C=CC(=O)N1CCN(c2nc(=O)n3c4c(c(-c5ccc(F)cc5F)c(C(F)(F)F)cc24)SC[C@@H]3CN2CCN(C3CC3)CC2)CC1 (atropisomer, axis not shown) [Example 1391, (3S,10S)-7-(4-acryloylpiperazin-1-yl)-3-((4-cyclopropylpiperazin-1-yl)methyl)-10-(2,4-difluorophenyl)-9-(trifluoromethyl)-2,3-dihydro-5H-[1,4]thiazino[2,3,4-ij]quinazolin-5-one]",
94,"C=CC(=O)N1[C@H](C)CN(c2nc(=O)n3c4c(c(-c5nc(N)ccc5I)c(C(F)(F)F)cc24)SC[C@@H]3COC)C[C@@H]1C [Example 1449, (3S)-7-((3S,5R)-4-acryloyl-3,5-dimethylpiperazin-1-yl)-10-(6-amino-3-iodopyridin-2-yl)-3-(methoxymethyl)-9-(trifluoromethyl)-2,3-dihydro-5H-[1,4]thiazino[2,3,4-ij]quinazolin-5-one]",
,"C=CC(=O)N1[C@H](C)CN(c2nc(=O)n3c4c(c(-c5ccc(F)cc5)c(Cl)cc24)SC[C@H](OC)C3)C[C@@H]1C [Example 1039, (R)-8-((3S,5R)-4-acryloyl-3,5-dimethylpiperazin-1-yl)-10-chloro-11-(4-fluorophenyl)-3-methoxy-3,4-dihydro-2H,6H-[1,4]thiazepino[2,3,4-ij]quinazolin-6-one]",CAF (% binding after 60 min): 96%
,"C=CC(=O)N1[C@H](C)CN(c2nc(=O)n3c4c(c(-c5cc(Cl)c(F)cc5F)c(C(F)(F)F)cc24)SC[C@H](N2CCOCC2)C3)C[C@@H]1C [Example 1105, (3R)-8-((3S,5R)-4-acryloyl-3,5-dimethylpiperazin-1-yl)-11-(5-chloro-2,4-difluorophenyl)-3-morpholino-10-(trifluoromethyl)-3,4-dihydro-2H,6H-[1,4]thiazepino [2,3,4-ij]quinazolin-6-one]",% CAF 10 uM @ 60 min (60 min incubation): 95.6%
,"C=CC(=O)N1C[C@H](C)N(c2nc(=O)n3c4c(c(-c5ccc(F)cc5)c(C(F)(F)F)cc24)SCC2(COC2)C3)C[C@H]1C [Example 1111, 8′-((2S,5R)-4-acryloyl-2,5-dimethylpiperazin-1-yl)-11′-(4-fluorophenyl)-10′-(trifluoromethyl)-2′H,4′H,6′H-spiro[oxetane-3,3′-[1,4]thiazepino [2,3,4-ij]quinazolin]-6′-one]",% CAF 10 uM @ 60 min (60 min incubation): 95.4%
,"C=CC(=O)N1[C@H](C)CN(c2nc(=O)n3c4c(c(-c5ccc(F)c(Cl)c5)c(C(F)(F)F)cc24)SC[C@H](OCCOC)C3)C[C@@H]1C [Example 1028, (R)-8-((3S,5R)-4-acryloyl-3,5-dimethylpiperazin-1-yl)-11-(3-chloro-4-fluorophenyl)-3-(2-methoxyethoxy)-10-(trifluoromethyl)-3,4-dihydro-2H,6H-[1,4]thiazepino[2,3,4-ij]quinazolin-6-one]",CAF (% binding after 60 min): 96%
,"C=CC(=O)N1[C@H](C)CN(c2nc(=O)n3c4c(c(-c5ccc(F)cc5F)c(C(F)(F)F)cc24)SC[C@@H](OCC)C3)C[C@@H]1C [Example 1205, (3S)-8-((3S,5R)-4-acryloyl-3,5-dimethylpiperazin-1-yl)-11-(2,4-difluorophenyl)-3-ethoxy-10-(trifluoromethyl)-3,4-dihydro-2H,6H-[1,4]thiazepino[2,3,4-ij]quinazolin-6-one]",CAF (% after 1 hour): 95%
95.5,"C=CC(=O)N1[C@H](C)CN(c2nc(=O)n3c4c(c(-c5ccc(F)cc5)c(C(F)(F)F)cc24)SC[C@H](CO)C3)C[C@@H]1C [Example 1399, (S)-8-((3S,5R)-4-acryloyl-3,5-dimethylpiperazin-1-yl)-11-(4-fluorophenyl)-3-(hydroxymethyl)-10-(trifluoromethyl)-3,4-dihydro-2H,6H-[1,4]thiazepino[2,3,4-ij]quinazolin-6-one]",
99.2,"C=CC(=O)N1CCN(c2nc(=O)n3c4c(c(-c5cc(Cl)c(F)cc5F)c(C(F)(F)F)cc24)SC[C@@H]3CN2CCN(C3CC3)CC2)CC1 (atropisomer, axis not shown) [Example 1355, (3S,10R)-7-(4-acryloylpiperazin-1-yl)-10-(5-chloro-2,4-difluorophenyl)-3-((4-cyclopropylpiperazin-1-yl)methyl)-9-(trifluoromethyl)-2,3-dihydro-5H-[1,4]thiazino[2,3,4-ij]quinazolin-5-one]",
88.6,"[2H]C([2H])=C([2H])C(=O)N1[C@H](C)CN(c2nc(=O)n3c4c(c(-c5ccc(F)cc5F)c(C(F)(F)F)cc24)SC[C@@H]3COC)C[C@@H]1C (atropisomer, axis not shown) [Example 1405, (3S,10R)-7-((3S,5R)-4-(acryloyl-d3)-3,5-dimethylpiperazin-1-yl)-10-(2,4-difluorophenyl)-3-(methoxymethyl)-9-(trifluoromethyl)-2,3-dihydro-5H-[1,4]thiazino[2,3,4-ij]quinazolin-5-one]",
